One data set relates to HIV-IIIb. In words: Test A: Antiviral Assay in MT4 Cells. Format: cell-based, HIV-1. To be noted: Human immunodeficiency virus 1, IIIB, MT4, 120 h, MT-4 cells infected with HIV-IIIb, 5 days, calculated from the dose response curve, values above 100 normalized to 100%; for inhibition at 0.2 µM: read-out: % inhibition at 0.2 μM (percent inhibition of virus-induced cell killing), 0.2 μM drug concentration; for inhibition at 2 µM: read-out: % inhibition at 2 μM (percent inhibition of virus-induced cell killing), 2 μM drug concentration. As to the method: Test A: Antiviral Assay in MT4 Cells
(§1) MT-4 cells were next mixed with HIV-IIIb at an m.o.i of 0.003 for 1 hour, after which time 35 μL of virus/cell mixture (2000 cells) was immediately added to each well containing 40 μL of diluted compound. The plates were then incubated at 37° C. for 5 days. […] Cell lysis was carried out by incubating at room temperature for 10 min and then chemiluminescence was read.
The data above represent an average over time of each assay for each compound. […] Thus, the data reported in the tables include the data reported in the priority document, as well as data from assays run in the intervening period.

Data set [1] in a line: Test B: Cytotoxicity Assay. Format: cell-based. As to conditions: human; uninfected MT-4 cells, same protocol as Test A, 5 days. As for the experimental part: as §1
Test B: Cytotoxicity Assay
Compound cytotoxicity and the corresponding CC50 values was determined using the same protocol as described in the antiviral assay (Test A) except that uninfected cells were used.

Each structure is given as a SMILES string.

By CC50 is commonly meant the concentration that lowers cell viability or growth by half.

As for `CC(C)(C)C#Cc1ccc(-c2cccn3c(NS(C)(=O)=O)nnc23)c([C@H](Cc2cc(F)cc(F)c2)NC(=O)Cn2nc(C(F)F)c3c2C(F)(F)[C@@H]2C[C@H]32)n1` [Compound 134, 2-((3bS,4aR)-3-(difluoromethyl)-5,5-difluoro-3b,4,4a,5-tetrahydro-1H-cyclopropa[3,4]cyclopenta[1,2-c]pyrazol-1-yl)-N—((S)-2-(3,5-difluorophenyl)-1-(6-(3,3-dimethylbut-1-yn-1-yl)-3-(3-(methylsulfonamido)-[1,2,4]triazolo[4,3-a]pyridin-8-yl)pyridin-2-yl)ethyl)acetamide], in the data set on HIV-IIIb, the inhibition at 0.2 µM is 82% and the inhibition at 2 µM is 83%. Moreover, the midpoint of cytotoxicity in data set [1], the CC50 at 5 days, lay at 28 µM.
Taken in the same sequence, the figures for `Cc1ccc(-c2ccc(C#CC(C)(C)O)nc2[C@H](Cc2cc(F)cc(F)c2)NC(=O)Cn2nc(C(F)F)c3c2C(F)(F)[C@@H]2C[C@H]32)c2c1c(NS(N)(=O)=O)nn2C` [Compound 71, 2-((3bS,4aR)-3-(difluoromethyl)-5,5-difluoro-3b,4,4a,5-tetrahydro-1H-cyclopropa[3,4]cyclopenta[1,2-c]pyrazol-1-yl)-N—((S)-2-(3,5-difluorophenyl)-1-(3-(1,4-dimethyl-3-(sulfamoylamino)-1H-indazol-7-yl)-6-(3-hydroxy-3-methylbut-1-yn-1-yl)pyridin-2-yl)ethyl)acetamide] were 87%, 87% and 9.51 µM.
For the compound `Cn1nc(NS(C)(=O)=O)c2cccc(-c3ccc(C#C[C@@H](N)CO)nc3[C@H](Cc3cc(F)cc(F)c3)NC(=O)Cn3nc(C(F)(F)F)c4c3C(F)(F)[C@@H]3C[C@H]43)c21` [Compound 59B, N—((S)-1-(6-((R)-3-amino-4-hydroxybut-1-yn-1-yl)-3-(1-methyl-3-(methylsulfonamido)-1H-indazol-7-yl)pyridin-2-yl)-2-(3,5-difluorophenyl)ethyl)-2-((3bS,4aR)-5,5-difluoro-3-(trifluoromethyl)-3b,4,4a,5-tetrahydro-1H-cyclopropa[3,4]cyclopenta[1,2-c]pyrazol-1-yl)acetamide], in the data set on HIV-IIIb, the inhibition at 0.2 µM is 94% and the inhibition at 2 µM was 94%. The midpoint of cytotoxicity in data set [1], the CC50 at 5 days, lay at 22.4 µM.
Regarding `Cn1cc(-c2ccc(-c3ccc(Cl)c4c(NS(C)(=O)=O)nn(C)c34)c([C@H](Cc3cc(F)cc(F)c3)NC(=O)Cn3nc(C(F)(F)F)c4c3C(F)(F)[C@@H]3C[C@H]43)n2)cn1` [Compound 173, N—((S)-1-(3-(4-chloro-1-methyl-3-(methylsulfonamido)-1H-indazol-7-yl)-6-(1-methyl-1H-pyrazol-4-yl)pyridin-2-yl)-2-(3,5-difluorophenyl)ethyl)-2-((3bS,4aR)-5,5-difluoro-3-(trifluoromethyl)-3b,4,4a,5-tetrahydro-1H-cyclopropa[3,4]cyclopenta[1,2-c]pyrazol-1-yl)acetamide], in the data set on HIV-IIIb, the inhibition at 0.2 µM is 92% and the inhibition at 2 µM was 92%. Further, the CC50 at 5 days in data set [1] was more than 43.7 µM.
As for `CCC(O)C#Cc1ccc(-c2ccc(Cl)c3c(NS(C)(=O)=O)nn(C)c23)c([C@H](Cc2cc(F)cc(F)c2)NC(=O)Cn2nc(C(F)(F)F)c3c2C(F)(F)[C@@H]2C[C@H]32)n1` (stereo partly drawn) [Compound 145, N-((1S)-1-(3-(4-chloro-1-methyl-3-(methylsulfonamido)-1H-indazol-7-yl)-6-(3-hydroxypent-1-yn-1-yl)pyridin-2-yl)-2-(3,5-difluorophenyl)ethyl)-2-((3bS,4aR)-5,5-difluoro-3-(trifluoromethyl)-3b,4,4a,5-tetrahydro-1H-cyclopropa[3,4]cyclopenta[1,2-c]pyrazol-1-yl)acetamide], in the data set with HIV-IIIb, the inhibition at 0.2 µM was 99% and the inhibition at 2 µM was 99%. Besides, the CC50 at 5 days in data set [1] is 8.69 µM.

Source of the values: patent US9951043B2, “Therapeutic compounds” (Gilead Sciences, Inc., priority 2013, dated 2018).
